Data from PubChem BioAssay AID248 (DTP/NCI, 2004).
Several values for one entry are separate records, joined by “and”; a condition that tells them apart may be missing. Identical values can stand only once. Toxic doses and inconclusive results are not listed. Cut-off read from the data, not from the text of the source: active = T/C of 150% or more; inactive = T/C below 125%.

Test system: L1210 leukemia ip in BDF1 mice, survival T/C
Assay: NCI In Vivo Anticancer Drug Screen. Data for tumor model L1210 Leukemia (intraperitoneal) in B6D2F1 (BDF1) mice
Conditions: endpoint: mean survival time, higher = longer survival
How it was run: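 Antitumor effect is assessed in tumor-bearing animals. Survival in the compound arm is compared with a vehicle-dosed control arm and expressed as their quotient.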

[1] = dose: 100.0 mg/kg/injection, schedule: Q01DX009 (ip), vehicle: saline with Tween-80
[2] = dose: 200.0 mg/kg/injection, schedule: Q01DX009 (ip), vehicle: saline with Tween-80
[3] = dose: 400.0 mg/kg/injection, schedule: Q01DX009 (ip), vehicle: saline with Tween-80
[4] = dose: 100.0 mg/kg/injection, schedule: Q04DX003 (ip), vehicle: saline with Tween-80
[5] = dose: 200.0 mg/kg/injection, schedule: Q04DX003 (ip), vehicle: saline with Tween-80
[6] = dose: 400.0 mg/kg/injection, schedule: Q04DX003 (ip), vehicle: saline with Tween-80
[7] = dose: 25.0 mg/kg/injection, schedule: Q04DX003 (ip), vehicle: saline
[8] = dose: 50.0 mg/kg/injection, schedule: Q04DX003 (ip), vehicle: saline

Measured: T/C

COc1ccc(C(=NN=C(N)N)c2ccc(OC)cc2)cc1
inactive: dose: 15.0 mg/kg/injection, schedule: Q01DX Z (ip), vehicle: saline 96 % of control | dose: 30.0 mg/kg/injection, schedule: Q01DX Z (ip), vehicle: saline 100 % of control | dose: 30.0 mg/kg/injection, schedule: Q01DX Z (oral), vehicle: saline 105 % of control | dose: 60.0 mg/kg/injection, schedule: Q01DX Z (ip), vehicle: saline 96 % of control | dose: 60.0 mg/kg/injection, schedule: Q01DX Z (oral), vehicle: saline 97 % of control | dose: 120.0 mg/kg/injection, schedule: Q01DX Z (oral), vehicle: saline 105 % of control | dose: 240.0 mg/kg/injection, schedule: Q01DX Z (oral), vehicle: saline 92 % of control | dose: 480.0 mg/kg/injection, schedule: Q01DX Z (oral), vehicle: saline 94 % of control

CC(=O)Nc1ccc(OC(=O)Nc2ccc(Cl)cc2C(F)(F)F)cc1
inactive: dose: 50.0 mg/kg/injection, schedule: Q01DX009 (ip), vehicle: saline with Tween-80 93 % of control | [1] 100 % of control | [2] 104 % of control

COc1ccccc1C1OCC(C)(C)N1C (stereo not given)
inactive: [1] 101 % of control | dose: 100.0 mg/kg/injection, schedule: Q04DX003 (ip), vehicle: Klucel (hydroxypropylcellulose) (HPC) 97 % of control and 105 % of control | [2] 95 % of control | dose: 200.0 mg/kg/injection, schedule: Q04DX003 (ip), vehicle: Klucel (hydroxypropylcellulose) (HPC) 95 % of control | [3] 102 % of control | dose: 400.0 mg/kg/injection, schedule: Q04DX003 (ip), vehicle: Klucel (hydroxypropylcellulose) (HPC) 94 % of control and 93 % of control

O=c1cc(N=Nc2ccc(O)cc2)[nH]c(=O)[nH]1
inactive: dose: 100.0 mg/kg/injection, schedule: Q01DX009 (ip), vehicle: water 94 % of control | dose: 100.0 mg/kg/injection, schedule: Q04DX003 (ip), vehicle: water 103 % of control | dose: 200.0 mg/kg/injection, schedule: Q01DX009 (ip), vehicle: water 94 % of control | dose: 200.0 mg/kg/injection, schedule: Q04DX003 (ip), vehicle: water 103 % of control | dose: 400.0 mg/kg/injection, schedule: Q01DX009 (ip), vehicle: water 92 % of control | dose: 400.0 mg/kg/injection, schedule: Q04DX003 (ip), vehicle: water 104 % of control

O=C(C(O)C(O)C(O)C(O)CO)N1CCC(c2ccccc2)(c2ccccc2)CC1 (stereo not given)
inactive: dose: 100.0 mg/kg/injection, schedule: Q01DX003 (ip), vehicle: saline 91 % of control | dose: 200.0 mg/kg/injection, schedule: Q01DX003 (ip), vehicle: saline 94 % of control | dose: 400.0 mg/kg/injection, schedule: Q01DX003 (ip), vehicle: saline 87 % of control

O=S(=O)(OCC(O)C1OCOC2COCOC21)c1ccccc1 (stereo not given)
inactive: dose: 100.0 mg/kg/injection, schedule: Q01DX001 (ip), vehicle: Klucel (hydroxypropylcellulose) (HPC) 112 % of control | dose: 200.0 mg/kg/injection, schedule: Q01DX001 (ip), vehicle: Klucel (hydroxypropylcellulose) (HPC) 93 % of control | dose: 400.0 mg/kg/injection, schedule: Q01DX001 (ip), vehicle: Klucel (hydroxypropylcellulose) (HPC) 97 % of control

CC(=O)OCCN1c2ccccc2Sc2cnccc21
inactive: [1] 104 % of control | [4] 104 % of control | [2] 97 % of control | [5] 110 % of control | [3] 104 % of control | [6] 104 % of control

O=C1Nc2ccccc2/C1=C/c1cccnc1
inactive: dose: 50.0 mg/kg/injection, schedule: Q01DX Z (ip), vehicle: carboxymethylcellulose (CMC) 97 % of control | dose: 100.0 mg/kg/injection, schedule: Q01DX Z (ip), vehicle: carboxymethylcellulose (CMC) 111 % of control | dose: 200.0 mg/kg/injection, schedule: Q01DX Z (ip), vehicle: carboxymethylcellulose (CMC) 94 % of control | dose: 400.0 mg/kg/injection, schedule: Q01DX Z (ip), vehicle: carboxymethylcellulose (CMC) 95 % of control

O=[N+]([O-])c1cccc(C=Nc2ccc(CCC3(CCl)OCCO3)cc2)c1
inactive: dose: 100.0 mg/kg/injection, schedule: Q01DX001 (ip), vehicle: gum acacia 96 % of control | dose: 200.0 mg/kg/injection, schedule: Q01DX001 (ip), vehicle: gum acacia 98 % of control | dose: 400.0 mg/kg/injection, schedule: Q01DX001 (ip), vehicle: gum acacia 98 % of control

Nc1cc([N+](=O)[O-])ccc1Nc1ccccc1
inactive: dose: 25.0 mg/kg/injection, schedule: Q01DX009 (ip), vehicle: DMSO 93 % of control | dose: 100.0 mg/kg/injection, schedule: Q04DX003 (ip), vehicle: DMSO 89 % of control

c1ccc(-c2nc3ccccc3s2)cc1
inactive: dose: 100.0 mg/kg/injection, schedule: Q04DX002 (ip), vehicle: gum acacia 101 % of control | dose: 200.0 mg/kg/injection, schedule: Q04DX002 (ip), vehicle: gum acacia 111 % of control | dose: 400.0 mg/kg/injection, schedule: Q04DX002 (ip), vehicle: gum acacia 86 % of control

Cc1cccc(N2CCN(c3ccncc3N)CC2C)c1 (stereo not given)
inactive: dose: 19.0 mg/kg/injection, schedule: Q01DX009 (ip), vehicle: saline with Tween-80 102 % of control | dose: 37.5 mg/kg/injection, schedule: Q04DX003 (ip), vehicle: saline with Tween-80 94 % of control | dose: 38.0 mg/kg/injection, schedule: Q01DX009 (ip), vehicle: saline with Tween-80 91 % of control | dose: 75.0 mg/kg/injection, schedule: Q01DX009 (ip), vehicle: saline with Tween-80 89 % of control | dose: 75.0 mg/kg/injection, schedule: Q04DX003 (ip), vehicle: saline with Tween-80 94 % of control

CC(C)(C)C1CCC(N=C(N)CCl)CC1 (stereo not given)
inactive: dose: 6.25 mg/kg/injection, schedule: Q01DX009 (ip), vehicle: Klucel (hydroxypropylcellulose) (HPC) 98 % of control | dose: 12.5 mg/kg/injection, schedule: Q01DX009 (ip), vehicle: Klucel (hydroxypropylcellulose) (HPC) 102 % of control | dose: 12.5 mg/kg/injection, schedule: Q04DX002 (ip), vehicle: Klucel (hydroxypropylcellulose) (HPC) 103 % of control | dose: 25.0 mg/kg/injection, schedule: Q01DX009 (ip), vehicle: Klucel (hydroxypropylcellulose) (HPC) 98 % of control | dose: 25.0 mg/kg/injection, schedule: Q04DX002 (ip), vehicle: Klucel (hydroxypropylcellulose) (HPC) 100 % of control

CC1(C)C(C(=O)O)CC1C(=O)C(=O)O (stereo not given)
inactive: dose: 75.0 mg/kg/injection, schedule: Q01DX001 (ip), vehicle: carboxymethylcellulose (CMC) 96 % of control | dose: 150.0 mg/kg/injection, schedule: Q01DX001 (ip), vehicle: carboxymethylcellulose (CMC) 96 % of control | dose: 300.0 mg/kg/injection, schedule: Q01DX001 (ip), vehicle: carboxymethylcellulose (CMC) 94 % of control

CC[N+](C)(CC)CCCN(C)C(=O)C(c1ccccc1)c1ccccc1
inactive: dose: 12.5 mg/kg/injection, schedule: Q01DX001 (ip), vehicle: saline 92 % of control | dose: 12.5 mg/kg/injection, schedule: Q04DX003 (ip), vehicle: saline 98 % of control | dose: 25.0 mg/kg/injection, schedule: Q01DX001 (ip), vehicle: saline 103 % of control | [7] 93 % of control | dose: 50.0 mg/kg/injection, schedule: Q01DX001 (ip), vehicle: saline 92 % of control | [8] 93 % of control | dose: 75.0 mg/kg/injection, schedule: Q04DX003 (ip), vehicle: saline 97 % of control

CC(=O)OC1=CCCCC1c1ccccc1 (stereo not given)
inactive: [1] 103 % of control | [4] 98 % of control | [2] 111 % of control | [5] 98 % of control | [3] 103 % of control | [6] 109 % of control

CC(=O)Oc1ccc2ccccc2c1/C=C/c1ccncc1
inactive: dose: 6.25 mg/kg/injection, schedule: Q01DX009 (ip), vehicle: saline 104 % of control | dose: 12.5 mg/kg/injection, schedule: Q01DX009 (ip), vehicle: saline 102 % of control | dose: 25.0 mg/kg/injection, schedule: Q01DX009 (ip), vehicle: saline 96 % of control and 105 % of control | [7] 115 % of control | dose: 50.0 mg/kg/injection, schedule: Q01DX009 (ip), vehicle: saline 95 % of control | [8] 93 % of control | dose: 100.0 mg/kg/injection, schedule: Q04DX003 (ip), vehicle: saline 94 % of control and 90 % of control
